Literature values in paper PMC4666608, “Metabolic Profiling of Chicken Embryos Exposed to Perfluorooctanoic Acid (PFOA) and Agonists to Peroxisome Proliferator-Activated Receptors” (PLoS ONE, 2015).

Test system: chicken embryos
Settings: injection before start of incubation; cited from earlier work

O=C(O)C(F)(F)C(F)(F)C(F)(F)C(F)(F)C(F)(F)C(F)(F)C(F)(F)F [PFOA, perfluorooctanoic acid]
Dose at which increased mortality was reported: 5 mg/kg egg | Doses with lack of effect on hatching success or mortality: up to 10 mg/kg egg | Lowest observed effect level, increased embryo mortality: 2 mg/kg egg
